Data from the supplement of paper PMC10307832.

How the values were obtained:
Experiment in all cases: relative viability (nuclei count vs DMSO), 5 days (fraction); higher = more cells survive
Apatinib + OSI-027 = compound: N#CC1(c2ccc(NC(=O)c3cccnc3NCc3ccncc3)cc2)CCCC1 [Apatinib] + COc1cccc2cc(-c3nc([C@H]4CC[C@H](C(=O)O)CC4)n4ncnc(N)c34)[nH]c12 [OSI-027] (partner 0.5 µM)
Method in brief: (§1)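 Lung cancer cell lines were seeded in 1536-well plates and dosed by pin tool the next day, with either a single drug or a fixed anchor-drug dose combined with five library-drug doses (not always all listed) spaced in √10 steps. Five days later, one step fixed the cells and stained their nuclei (final 0.05% Triton X-100, 1% formaldehyde, 1 ug/ml Hoechst), and nuclei were counted on 4× images. Relative viability is the nuclei count in treated wells divided by the count in vehicle wells, and each value is the median of duplicate plates.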

Apatinib + Linsitinib = compound: N#CC1(c2ccc(NC(=O)c3cccnc3NCc3ccncc3)cc2)CCCC1 [Apatinib] + C[C@]1(O)C[C@@H](c2nc(-c3ccc4ccc(-c5ccccc5)nc4c3)c3c(N)nccn32)C1 [Linsitinib] (partner 1 µM)
Method in brief: as §1

Apatinib + Alpelisib = compound: N#CC1(c2ccc(NC(=O)c3cccnc3NCc3ccncc3)cc2)CCCC1 [Apatinib] + Cc1nc(NC(=O)N2CCC[C@H]2C(N)=O)sc1-c1ccnc(C(C)(C)C(F)(F)F)c1 [Alpelisib] (partner 2 µM)
Method in brief: as §1

Apatinib + Vorinostat = compound: N#CC1(c2ccc(NC(=O)c3cccnc3NCc3ccncc3)cc2)CCCC1 [Apatinib] + O=C(CCCCCCC(=O)Nc1ccccc1)NO [Vorinostat] (partner 1 µM)
Method in brief: as §1

Row | Cell Line | relative viability (Apatinib + OSI-027; first compound 0.08 µM) | relative viability (Apatinib + OSI-027; first compound 0.253 µM) | relative viability (Apatinib + OSI-027; first compound 0.8 µM) | relative viability (Apatinib + OSI-027; first compound 2.53 µM) | relative viability (Apatinib + OSI-027; first compound 8 µM) | relative viability (Apatinib + Linsitinib; first compound 0.08 µM) | relative viability (Apatinib + Linsitinib; first compound 0.253 µM) | relative viability (Apatinib + Linsitinib; first compound 0.8 µM) | relative viability (Apatinib + Linsitinib; first compound 2.53 µM) | relative viability (Apatinib + Linsitinib; first compound 8 µM) | relative viability (Apatinib + Alpelisib; first compound 0.08 µM) | relative viability (Apatinib + Alpelisib; first compound 0.253 µM) | relative viability (Apatinib + Alpelisib; first compound 0.8 µM) | relative viability (Apatinib + Alpelisib; first compound 2.53 µM) | relative viability (Apatinib + Alpelisib; first compound 8 µM) | relative viability (Apatinib + Vorinostat; first compound 0.08 µM) | relative viability (Apatinib + Vorinostat; first compound 0.253 µM) | relative viability (Apatinib + Vorinostat; first compound 0.8 µM) | relative viability (Apatinib + Vorinostat; first compound 2.53 µM) | relative viability (Apatinib + Vorinostat; first compound 8 µM)
1 | NCI-H1734 | 0.597 | 0.597 | 0.578 | 0.495 | 0.453 | 0.969 | 1.04 | 0.897 | 0.738 | 0.809 | 0.739 | 0.774 | 0.701 | 0.591 | 0.595 | 0.935 | 0.947 | 0.773 | 0.727 | 0.728
2 | NCI-H727 | 0.55 | 0.565 | 0.533 | 0.642 | 0.466 | 0.33 | 0.33 | 0.415 | 0.348 | 0.36 | 0.64 | 0.625 | 0.53 | 0.512 | 0.506 | 1.18 | – | 1.23 | 1.08 | 0.999
3 | LU99A | 0.317 | 0.277 | 0.259 | 0.243 | 0.263 | 0.589 | 0.549 | 0.515 | 0.457 | 0.47 | 0.565 | 0.618 | 0.457 | 0.49 | 0.461 | 0.514 | 0.589 | 0.467 | 0.43 | 0.354
4 | LXF-289 | 0.81 | 0.849 | 0.745 | 0.763 | 0.718 | 0.974 | 0.964 | 0.96 | 0.941 | 0.896 | 1.13 | 1.06 | 1.03 | 0.998 | 0.964 | 0.813 | 0.746 | 0.765 | 0.637 | 0.671
5 | UMC-11 | 0.574 | 0.437 | 0.479 | 0.464 | 0.312 | 0.999 | 1.01 | 0.979 | 0.911 | 0.93 | 1.05 | 0.834 | 0.848 | 0.959 | 0.885 | 0.403 | 0.397 | 0.366 | 0.349 | 0.341
6 | LCLC-103H | 0.495 | 0.477 | 0.384 | 0.401 | 0.457 | 1.1 | 1.05 | 1.06 | 1.09 | 0.993 | 0.971 | 0.87 | 1.02 | 0.918 | 0.911 | 0.812 | 0.773 | 0.772 | 0.683 | 0.709
7 | NCI-H2405 | 0.621 | 0.579 | 0.714 | 0.604 | 0.626 | 1.05 | 1.12 | 1.05 | 0.95 | 0.955 | 0.855 | 1.1 | 0.91 | 0.841 | 0.81 | 1.21 | 1.15 | 1.06 | 0.951 | 1.03
